Measurements reported in PMC6968775, “Assessment of contribution of BCRP to intestinal absorption of various drugs using portal‐systemic blood concentration difference model in mice” (Pharmacology Research & Perspectives, 2020).
“And” between values parts separate entries of the source, which are not always exact repeats. Equal values may be shown once.

How the values were obtained:
[1] = Blood/plasma concentration ratio (R b) in fresh whole blood; format: in vitro ADME, FVB mice; details: fresh whole blood, FVB mouse whole blood, 37°C
Description: Similarly, the model compounds were added to plasma, and reference blood samples were obtained according to the same procedure. These concentrations of drugs in each sample were analyzed using HPLC (C B and C P, respectively). R b value was calculated by dividing C B by C P.

[2] = system: BCRP
[3] = Pharmacokinetics after iv and oral administration, P‐S difference method, wild‐type mice; format: in vivo
Description: (§1) Male Mdr1a/1b(−/−) and Bcrp(−/−) mice, and WT mice of the same genetic background (FVB) were obtained from Taconic Farms (Germantown, NY, USA). […] Food and water were available ad libitum. All experiments were carried out in accordance with the principles and procedures outlined in the National Institutes of Health Guide for the Care and Use of Laboratory.
(§2) All the mice were fasted overnight with free access to tap water. In the intravenous administration studies, model compounds were administered via the tail vein at doses of 1 mg/kg (n = 3). Following administration, blood samples were collected from the abdominal vein of the anesthetized mice at 0.083, 0.17, 0.5, 1, 2, 4, and 8 hours. […] Following administration, blood samples were taken from the portal and abdominal veins of the anesthetized mice at 0.083, 0.17, 0.5, 1, 2, 4, and 8 hours. The plasma samples were separated by centrifugation at 14 000g for 10 minutes at 4°C and stored at −30°C until analysis.
(§3) After organic layer was evaporated at 60°C, the resultant residues were dissolved in a mobile phase. For the determination of topotecan and sulfasalazine, plasma samples were mixed with acetonitrile, centrifuged at 750 g for 10 minutes at 4°C, and the supernatants were collected. After the evaporation of the supernatants, the residues were dissolved in a mobile phase, and acidified with phosphoric acid for topotecan. All drugs were analyzed by HPLC system (Shimadzu LC‐10AS pump, Shimadzu SIL‐10A autosampler) equipped with a reverse‐phase column (COSMOSIL 5C18‐AR‐II, 3.5‐μm […], 4.6 × 150 mm).
(§4) Elimination rate constant (k e) was determined by the least squares regression analysis of plasma concentration vs time curve. Elimination half‐life (t 1/2) was calculated using Eq.1:(1) t1/2=ln2/ke
(§5) Area under plasma concentration‐time curve (AUC) and area under the first moment curve (AUMC) from time 0 to infinity were calculated by trapezoidal rule.
(§6) Absorption rate constant (k a) after oral administration was calculated by the nonlinear least squares fitting with program MULTI.12
(§7) BA was calculated by Eq.5:(7) BA=AUCoral/AUCiv×Doseiv/Doseoral×100 where AUCoral is AUC after oral administration. Doseiv and Doseoral are administered dose in the intravenous and oral administration study, respectively.
(§8) Hepatic availability (F h) was calculated by Eq.6:(8) Fh=F/Fa×Fg

[4] = Pharmacokinetics after iv and oral administration, P‐S difference method, Mdr1a/1b(−/−) mice; format: in vivo
Description: as §1, §2, §3, §4, §5, §6, §7, §8

[5] = system: P‐gp; details: Caco‐2 permeability study; unpublished data; ref Fujita et al, manuscript in preparation; cited from earlier work
[6] = Pharmacokinetics after iv and oral administration, P‐S difference method, Bcrp(−/−) mice; format: in vivo
Description: as §1, §2, §3, §4, §5, §6, §7, §8

[7] = system: P‐gp; details: in vivo (mice); calculated from F a F g in WT, Bcrp(−/−) and Mdr1a/1b(−/−) mice (Eq. 12)
[8] = system: BCRP; details: Caco‐2 permeability study; ref (10); Kawahara et al, manuscript in revision; cited from earlier work
[9] = wild‐type mice, p.o. (ciprofloxacin 1, nitrofurantoin 2, topotecan 1, sulfasalazine 5 mg/kg)
[10] = Mdr1a/1b(−/−) mice, p.o. (ciprofloxacin 1, nitrofurantoin 2, topotecan 1, sulfasalazine 5 mg/kg)
[11] = male, Mdr1a/1b(−/−) (FVB background), mouse, systemic plasma (abdominal vein), po
[12] = Bcrp(−/−) mice, p.o. (ciprofloxacin 1, nitrofurantoin 2, topotecan 1, sulfasalazine 5 mg/kg)

blood plasma ratio at 15 min, 1 µg/mL [1]: 1.18 ± 0.1 | AQ bcrp (in vivo) ([2]; calculated from k a in WT, Bcrp(−/−) and Mdr1a/1b(−/−) mice (Eq. 9)): 0.13 | R bcrp (rate of BCRP contribution) ([2]; in vivo (mice), calculated from F a F g in WT, Bcrp(−/−) and Mdr1a/1b(−/−) mice (Eq. 11)): 0.15 | k a, wt ([3]; Table 5 summary, WT mice, oral administration): 5.80 | (F a F g) wt ([3]; as fraction, WT mice, oral administration): 0.64 | clearance ([3]; male, FVB (wild-type), mouse, plasma (systemic, abdominal vein), wild‐type mice, iv 1 mg/kg, read-out: CL tot (converted)): 38 mL/min/kg | Vd ([3]; male, FVB (wild-type), mouse, plasma (systemic, abdominal vein), wild‐type mice, iv 1 mg/kg, read-out: Vdss): 1.94 L/kg | half-life ([3]; male, FVB (wild-type), mouse, plasma, iv, 1 mg/kg, wild‐type mice, iv 1 mg/kg): 172 min | AUC(0-inf) ([3]; male, FVB (wild-type), mouse, plasma, iv, 1 mg/kg, wild‐type mice, iv 1 mg/kg, read-out: AUC 0→∞): 1.84 µM·h | Tmax ([3]; male, FVB (wild-type), mouse, portal vein plasma, po): 10.2 min | AUC(0-inf) ([3]; male, FVB (wild-type), mouse, portal vein plasma, po, wild‐type mice, p.o. (ciprofloxacin 1, nitrofurantoin 2, topotecan 1, sulfasalazine 5 mg/kg), portal vein (pv) plasma, read-out: AUC 0→∞ (AUCpv)): 2.54 µM·h | Tmax ([3]; male, FVB (wild-type), mouse, systemic plasma (abdominal vein), po): 10.2 min | half-life ([3]; male, FVB (wild-type), mouse, systemic plasma (abdominal vein), po, wild‐type mice, p.o. (ciprofloxacin 1, nitrofurantoin 2, topotecan 1, sulfasalazine 5 mg/kg), systemic (sys) plasma): 55.8 min | AUC(0-inf) ([3]; male, FVB (wild-type), mouse, systemic plasma (abdominal vein), po, wild‐type mice, p.o. (ciprofloxacin 1, nitrofurantoin 2, topotecan 1, sulfasalazine 5 mg/kg), systemic (sys) plasma, read-out: AUC 0→∞ (AUCsys)): 1.83 µM·h | F h [3, 9]: 78.3% | k a [3, 9]: 5.8 h⁻¹ and 5.80 h⁻¹ | BA ([3]; wild‐type mice, p.o. (ciprofloxacin 1, nitrofurantoin 2, topotecan 1, sulfasalazine 5 mg/kg) vs iv 1 mg/kg): 49.9% | F a F g ([3]; wild‐type mice, p.o. (ciprofloxacin 1, nitrofurantoin 2, topotecan 1, sulfasalazine 5 mg/kg), P‐S difference method): 63.7% | AUC 0→∞ (AUCpv) ([3]; wild‐type mice, p.o. (ciprofloxacin 1, nitrofurantoin 2, topotecan 1, sulfasalazine 5 mg/kg), portal vein (pv) plasma): 2.55 µM·h | AUC 0→∞ (AUCsys) ([3]; wild‐type mice, p.o. (ciprofloxacin 1, nitrofurantoin 2, topotecan 1, sulfasalazine 5 mg/kg), systemic (sys) plasma): 1.84 µM·h | F h [4, 10]: 79.9% | k a [4, 10]: 7.2 h⁻¹ and 7.20 h⁻¹ | BA ([4]; Mdr1a/1b(−/−) mice, p.o. (ciprofloxacin 1, nitrofurantoin 2, topotecan 1, sulfasalazine 5 mg/kg) vs iv 1 mg/kg): 60.0% | F a F g ([4]; Mdr1a/1b(−/−) mice, p.o. (ciprofloxacin 1, nitrofurantoin 2, topotecan 1, sulfasalazine 5 mg/kg), P‐S difference method): 75.2% | AUC 0→∞ (AUCpv) ([4]; Mdr1a/1b(−/−) mice, p.o. (ciprofloxacin 1, nitrofurantoin 2, topotecan 1, sulfasalazine 5 mg/kg), portal vein (pv) plasma): 3.18 µM·h | AUC 0→∞ (AUCsys) ([4]; Mdr1a/1b(−/−) mice, p.o. (ciprofloxacin 1, nitrofurantoin 2, topotecan 1, sulfasalazine 5 mg/kg), systemic (sys) plasma): 2.35 µM·h | k a, P‐gp ([4]; Table 5 summary, Mdr1a/1b(−/−) mice, oral administration): 7.20 | (F a F g)P‐gp ([4]; as fraction, Mdr1a/1b(−/−) mice, oral administration): 0.75 | clearance ([4]; male, FVB Mdr1a/1b(−/−), mouse, plasma (systemic, abdominal vein), Mdr1a/1b(−/−) mice, iv 1 mg/kg, read-out: CL tot (converted)): 35.8 mL/min/kg | Vd ([4]; male, FVB Mdr1a/1b(−/−), mouse, plasma (systemic, abdominal vein), Mdr1a/1b(−/−) mice, iv 1 mg/kg, read-out: Vdss): 1.36 L/kg | AUC(0-inf) ([4]; male, FVB Mdr1a/1b(−/−), mouse, portal vein plasma, po, Mdr1a/1b(−/−) mice, p.o. (ciprofloxacin 1, nitrofurantoin 2, topotecan 1, sulfasalazine 5 mg/kg), portal vein (pv) plasma, read-out: AUC 0→∞ (AUCpv)): 3.18 µM·h | AUC(0-inf) ([4]; male, FVB Mdr1a/1b(−/−), mouse, systemic plasma (abdominal vein), po, Mdr1a/1b(−/−) mice, p.o. (ciprofloxacin 1, nitrofurantoin 2, topotecan 1, sulfasalazine 5 mg/kg), systemic (sys) plasma, read-out: AUC 0→∞ (AUCsys)): 2.35 µM·h | AUC(0-inf) ([4]; male, Mdr1a/1b(−/−) (FVB background), mouse, plasma, iv, 1 mg/kg, Mdr1a/1b(−/−) mice, iv 1 mg/kg, read-out: AUC 0→∞): 1.95 µM·h | half-life ([4]; male, Mdr1a/1b(−/−) (FVB background), mouse, plasma, Mdr1a/1b(−/−) mice, iv 1 mg/kg): 70.2 min | Tmax ([4]; male, Mdr1a/1b(−/−) (FVB background), mouse, portal vein plasma, po): 10.2 min | Tmax [4, 11]: 10.2 min | half-life [4, 11]: 73.2 min | AUC pv and AUC sys after oral administration, Mdr1a/1b(−/−) mice vs WT mice ([4]; oral administration): approximately 1.5 fold | F h [6, 12]: 90.0% | k a [6, 12]: 6.9 h⁻¹ and 6.89 h⁻¹ | BA ([6]; Bcrp(−/−) mice, p.o. (ciprofloxacin 1, nitrofurantoin 2, topotecan 1, sulfasalazine 5 mg/kg) vs iv 1 mg/kg): 69.4% | F a F g ([6]; Bcrp(−/−) mice, p.o. (ciprofloxacin 1, nitrofurantoin 2, topotecan 1, sulfasalazine 5 mg/kg), P‐S difference method): 77.1% | AUC 0→∞ (AUCpv) ([6]; Bcrp(−/−) mice, p.o. (ciprofloxacin 1, nitrofurantoin 2, topotecan 1, sulfasalazine 5 mg/kg), portal vein (pv) plasma): 3.41 µM·h | AUC 0→∞ (AUCsys) ([6]; Bcrp(−/−) mice, p.o. (ciprofloxacin 1, nitrofurantoin 2, topotecan 1, sulfasalazine 5 mg/kg), systemic (sys) plasma): 2.56 µM·h | k a, bcrp ([6]; Table 5 summary, Bcrp(−/−) mice, oral administration): 6.89 | (F a F g)bcrp ([6]; as fraction, Bcrp(−/−) mice, oral administration): 0.77 | half-life ([6]; male, Bcrp(−/−) (FVB background), mouse, plasma, iv, 1 mg/kg, Bcrp(−/−) mice, iv 1 mg/kg): 84.6 min | Tmax ([6]; male, Bcrp(−/−) (FVB background), mouse, portal vein plasma, po): 10.2 min | Tmax ([6]; male, Bcrp(−/−) (FVB background), mouse, systemic plasma (abdominal vein), po): 10.2 min | AUC(0-inf) ([6]; male, FVB Bcrp(−/−), mouse, plasma (systemic, abdominal vein), iv, 1 mg/kg, Bcrp(−/−) mice, iv 1 mg/kg, read-out: AUC 0→∞): 1.84 µM·h | clearance ([6]; male, FVB Bcrp(−/−), mouse, plasma (systemic, abdominal vein), Bcrp(−/−) mice, iv 1 mg/kg, read-out: CL tot (converted)): 38 mL/min/kg | Vd ([6]; male, FVB Bcrp(−/−), mouse, plasma (systemic, abdominal vein), Bcrp(−/−) mice, iv 1 mg/kg, read-out: Vdss): 1.45 L/kg | AUC(0-inf) ([6]; male, FVB Bcrp(−/−), mouse, portal vein plasma, po, Bcrp(−/−) mice, p.o. (ciprofloxacin 1, nitrofurantoin 2, topotecan 1, sulfasalazine 5 mg/kg), portal vein (pv) plasma, read-out: AUC 0→∞ (AUCpv)): 3.41 µM·h | half-life ([6]; male, FVB Bcrp(−/−), mouse, systemic plasma (abdominal vein), po, Bcrp(−/−) mice, p.o. (ciprofloxacin 1, nitrofurantoin 2, topotecan 1, sulfasalazine 5 mg/kg), systemic (sys) plasma): 75 min | AUC(0-inf) ([6]; male, FVB Bcrp(−/−), mouse, systemic plasma (abdominal vein), po, Bcrp(−/−) mice, p.o. (ciprofloxacin 1, nitrofurantoin 2, topotecan 1, sulfasalazine 5 mg/kg), systemic (sys) plasma, read-out: AUC 0→∞ (AUCsys)): 2.56 µM·h | AUC pv and AUC sys after oral administration, Bcrp(−/−) mice vs WT mice ([6]; oral administration): approximately 1.5 fold | R P‐gp (rate of P‐gp contribution) [7]: 0.13
SMILES: O=C1CN(/N=C/c2ccc([N+](=O)[O-])o2)C(=O)N1 [nitrofurantoin, Nitrofurantoin]
AQp‐gp in vitro (Caco‐2) [5]: 0.09 | AQbcrp in vitro (Caco‐2) [8]: 0.37
